Structures can show the parent of a compound that is named as a salt. Where two headings read alike, the source gives them in different places.
Tests used:
[1] = biological target: T1, SARS-CoV-2 PLpro (nsp3 1564–1878) (Severe acute respiratory syndrome coronavirus 2, UniProt P0DTD1); experiment: biochemical; design: FRET-quenched peptide (Pro3) cleavage by PLpro, 10 min pre-incubation, slope over 20 min, normalised to no-compound control; conditions: high concentration screen, read-out: % of control remaining
[2] = biological target: T1, SARS-CoV-2 PLpro (nsp3 1564–1878); experiment: biochemical; design: FRET-quenched peptide (Pro3) cleavage by PLpro, 10 min pre-incubation, slope over 20 min, normalised to no-compound control; conditions: low concentration screen, read-out: % of control remaining
Procedure: The plates were organized with columns 3–22 containing the compounds; the remaining columns were used for reaction controls including substrate only and substrate with enzyme but no compound (Figure 3Aii). The PLpro enzyme was pre-incubated with the compounds for 10 min, and then the reaction was initiated by the addition of substrate. […] We incubated the inhibitors with PLpro before the enzymatic reaction so that the slow-binding inhibitors will not be missed out [21]. […] Fluorescence was read on a Spark multimode microplate reader (Tecan) with an excitation wavelength at 330 nm and emission wavelength at 420 nm. […] An amount of 5 µl of the enzyme was pre-incubated with compounds for 10 min before the addition of 15 µl substrate. Fluorescence was monitored at 2 min for 20 min with 3 min intervals giving a total of seven readings.

## CCN(CC)CCOC(=O)C(c1ccccc1)c1ccccc1 [Adiphenine HCl]
[1]; Well no.=5060
  remaining activity at 3.75 µM: 105%
[2]; Well no.=5060
  remaining activity at 1.25 µM: 105%

## O=C(O)CCCCC(=O)O [Adipic acid]
[1]; Well no.=6869
  remaining activity at 3.75 µM: 98.1%
[2]; Well no.=6869
  remaining activity at 1.25 µM: 102%

## O=C(COc1ccc(C(=O)c2ccccc2)cc1)NC1CCN(Cc2ccccc2)CC1 [AdipoRon]
[1]; Well no.=7239
  remaining activity at 3.75 µM: 96.7%
[2]; Well no.=7239
  remaining activity at 1.25 µM: 100%

## Cc1cc(O[C@@H](CCC(F)(F)F)c2ccc(C(=O)NCCC(=O)O)cc2)cc(C)c1-c1ccc(C(C)(C)C)cc1 [Adomeglivant]
[1]; Well no.=7043
  remaining activity at 3.75 µM: 98.4%
[2]; Well no.=7043
  remaining activity at 1.25 µM: 99.3%

## Fc1ccc(-c2cncc(CN3CCN(c4cccc5c4OCCO5)CC3)c2)cc1 [Adoprazine]
[1]; Well no.=8443
  remaining activity at 3.75 µM: 98.5%
[2]; Well no.=8443
  remaining activity at 1.25 µM: 100%

## O=C(C[S+]([O-])C(c1ccccc1)c1ccccc1)NO (stereo not drawn) [Adrafinil]
[1]; Well no.=6233
  remaining activity at 3.75 µM: 94.6%
[2]; Well no.=6233
  remaining activity at 1.25 µM: 102%

## CNCC(=O)c1ccc(O)c(O)c1 [Adrenalone (hydrochloride)]
[1]; Well no.=7433
  remaining activity at 3.75 µM: 103%
[2]; Well no.=7433
  remaining activity at 1.25 µM: 103%

## CNCC(=O)c1ccc(O)c(O)c1 [Adrenalone HCl]
[1]; Well no.=5034
  remaining activity at 3.75 µM: 94.4%
[2]; Well no.=5034
  remaining activity at 1.25 µM: 94.7%

## CCCCC/C=C/C/C=C/C/C=C/C/C=C/CCCCCC(=O)O [Adrenic acid (22:4 n-6)]
[1]; Well no.=4253
  remaining activity at 3.75 µM: 98.5%
[2]; Well no.=4253
  remaining activity at 1.25 µM: 105%

## N=C(N)NCCCCN [Agmatine (sulfate)]
[1]; Well no.=7803
  remaining activity at 3.75 µM: 106%
[2]; Well no.=7803
  remaining activity at 1.25 µM: 104%

## N=C(N)NCCCCN [Agmatine sulfate]
[1]; Well no.=261
  remaining activity at 3.75 µM: 96.2%
[2]; Well no.=261
  remaining activity at 1.25 µM: 93.6%

## COc1ccc2cccc(CCNC(C)=O)c2c1 [Agomelatine]
[1]; Well no.=5143
  remaining activity at 3.75 µM: 100%
[1]; Well no.=7340
  remaining activity at 3.75 µM: 102%
[2]; Well no.=5143
  remaining activity at 1.25 µM: 100%
[2]; Well no.=7340
  remaining activity at 1.25 µM: 99.9%

## CC1=C[C@@H]2c3cccc4[nH]cc(c34)C[C@H]2N(C)C1 [Agroclavine]
[1]; Well no.=210
  remaining activity at 3.75 µM: 93.5%
[2]; Well no.=210
  remaining activity at 1.25 µM: 94.3%

## CC[C@H]1[C@@H]2C[C@H]3[C@@H]4N(C)c5ccccc5[C@]45C[C@@H]([C@H]2[C@H]5O)N3[C@@H]1O [Ajmaline]
[1]; Well no.=3437
  remaining activity at 3.75 µM: 98.2%
[2]; Well no.=3437
  remaining activity at 1.25 µM: 98.9%

## CC[n+]1c(/C=C/N(C)c2ccccc2)n(-c2ccccc2)c2ccc(-c3nc4ccccc4s3)cc21 [Akt Inhibitor IV]
[1]; Well no.=2311
  remaining activity at 3.75 µM: 101%
[2]; Well no.=2311
  remaining activity at 1.25 µM: 102%

## CCN(CC)CCCCN1c2ccccc2Oc2ccc(Cl)cc21 [Akt Inhibitor X]
[1]; Well no.=2317
  remaining activity at 3.75 µM: 102%
[2]; Well no.=2317
  remaining activity at 1.25 µM: 101%

## O=c1[nH]c2ccccc2n1C1CCN(Cc2ccc(-c3[nH]c4cc5ncnc5cc4nc3-c3ccccc3)cc2)CC1 [Akt-I-1,2]
[1]; Well no.=2755
  remaining activity at 3.75 µM: 98.5%
[2]; Well no.=2755
  remaining activity at 1.25 µM: 101%

## CN(C)CC(C)(C)CNc1nn2c(-c3ccccc3)nnc2cc1C1CCC1 [Akt-I-1]
[1]; Well no.=2707
  remaining activity at 3.75 µM: 106%
[2]; Well no.=2707
  remaining activity at 1.25 µM: 107%

## CC(N)C(=O)OC(C)(C)Cc1ccc(Cl)cc1 (stereo not drawn) [Alaproclate hydrochloride]
[1]; Well no.=208
  remaining activity at 3.75 µM: 102%
[2]; Well no.=208
  remaining activity at 1.25 µM: 102%

## CCNC(=O)[C@@H]1CCCN1C(=O)[C@H](CCCN=C(N)N)NC(=O)[C@H](CC(C)C)NC(=O)[C@@H](C)NC(=O)[C@H](Cc1ccc(O)cc1)NC(=O)[C@H](CO)NC(=O)[C@H](Cc1c[nH]c2ccccc12)NC(=O)[C@H](Cc1cnc[nH]1)NC(=O)[C@@H]1CCC(=O)N1 [Alarelin (Acetate)]
[1]; Well no.=8383
  remaining activity at 3.75 µM: 97%
[2]; Well no.=8383
  remaining activity at 1.25 µM: 98.8%

## CCCSc1ccc2[nH]c(NC(=O)OC)nc2c1 [Albendazole]
[1]; Well no.=2083
  remaining activity at 3.75 µM: 105%
[2]; Well no.=2083
  remaining activity at 1.25 µM: 103%

## CN1CCC(=C2c3ccccc3CCn3c(C=O)cnc32)CC1 [Alcaftadine]
[1]; Well no.=6573
  remaining activity at 3.75 µM: 91.1%
[2]; Well no.=6573
  remaining activity at 1.25 µM: 94.6%

## O=C(NCc1ccc2c(c1)OCO2)c1c(Cl)cccc1Cl [Alda-1]
[1]; Well no.=5935
  remaining activity at 3.75 µM: 99.3%
[2]; Well no.=5935
  remaining activity at 1.25 µM: 101%

## NCCCC(O)(P(=O)(O)O)P(=O)(O)O [Alendronate]
[1]; Well no.=2079
  remaining activity at 3.75 µM: 104%
[2]; Well no.=2079
  remaining activity at 1.25 µM: 105%

## C=C1/C(=C\C=C2/CCC[C@]3(C)[C@@H]([C@H](C)CCCC(C)C)CC[C@@H]23)C[C@@H](O)C[C@@H]1O [Alfacalcidol]
[1]; Well no.=1854
  remaining activity at 3.75 µM: 99.8%
[2]; Well no.=1854
  remaining activity at 1.25 µM: 96.4%

## COc1cc2nc(N(C)CCCNC(=O)C3CCCO3)nc(N)c2cc1OC (stereo not drawn) [Alfuzosin]
[1]; Well no.=1809
  remaining activity at 3.75 µM: 97.8%
[1]; Well no.=6749
  remaining activity at 3.75 µM: 92.3%
[2]; Well no.=1809
  remaining activity at 1.25 µM: 98.4%
[2]; Well no.=6749
  remaining activity at 1.25 µM: 100%

## C=CCc1cc(OC)c(O)c(C(=O)NCCO)c1 [Alibendol]
[1]; Well no.=5002
  remaining activity at 3.75 µM: 94.9%
[2]; Well no.=5002
  remaining activity at 1.25 µM: 101%

## COc1cc(Nc2ncc3c(n2)-c2ccc(Cl)cc2C(c2c(F)cccc2OC)=NC3)ccc1C(=O)O [Alisertib]
[1]; Well no.=6164
  remaining activity at 3.75 µM: 103%
[2]; Well no.=6164
  remaining activity at 1.25 µM: 103%

## COCCCOc1cc(C[C@@H](C[C@H](N)[C@@H](O)C[C@H](C(=O)NCC(C)(C)C(N)=O)C(C)C)C(C)C)ccc1OC [Aliskiren hemifumarate]
[1]; Well no.=5148
  remaining activity at 3.75 µM: 104%
[2]; Well no.=5148
  remaining activity at 1.25 µM: 107%

## O=C1c2ccccc2C(=O)c2c1ccc(O)c2O [Alizarin]
[1]; Well no.=5284
  remaining activity at 3.75 µM: 95.1%
[2]; Well no.=5284
  remaining activity at 1.25 µM: 94.6%

## CC1=C(/C=C/C(C)=C/C=C/C(C)=C/C=O)C(C)(C)CCC1 [All-trans-retinal]
[1]; Well no.=7443
  remaining activity at 3.75 µM: 102%
[2]; Well no.=7443
  remaining activity at 1.25 µM: 102%

## NC(=O)NC1NC(=O)NC1=O (stereo not drawn) [Allantoin]
[1]; Well no.=6631
  remaining activity at 3.75 µM: 106%
[1]; Well no.=8145
  remaining activity at 3.75 µM: 97.6%
[2]; Well no.=6631
  remaining activity at 1.25 µM: 104%
[2]; Well no.=8145
  remaining activity at 1.25 µM: 106%

## CC(=O)[C@H]1CC[C@H]2[C@@H]3CC[C@H]4C[C@H](O)CC[C@]4(C)[C@H]3CC[C@]12C [Allopregnanolone]
[1]; Well no.=6197
  remaining activity at 3.75 µM: 107%
[2]; Well no.=6197
  remaining activity at 1.25 µM: 105%

## Oc1ncnc2[nH]ncc12 [Allopurinol]
[1]; Well no.=102
  remaining activity at 3.75 µM: 105%
[1]; Well no.=2077
  remaining activity at 3.75 µM: 104%
[2]; Well no.=102
  remaining activity at 1.25 µM: 106%
[2]; Well no.=2077
  remaining activity at 1.25 µM: 104%

## O=c1[nH]c(=O)c2nc3ccccc3nc2[nH]1 [Alloxazine]
[1]; Well no.=354
  remaining activity at 3.75 µM: 88.5%
[2]; Well no.=354
  remaining activity at 1.25 µM: 90.3%
